{
  "source": "patent US12622912B2",
  "about": "“Application of pyrido[1,2-a]pyrimidinone analog” (GUANGZHOU JOYO PHARMATECH CO., LTD, priority 2021, dated 2026)",
  "key": {"[1]": {"molecular_target": "T1, human PI3K p110α (E542K)/p85α (Homo sapiens, UniProt P42336, E542K)", "T1 construct": "purchased Millipore 14-782", "T1 sequence (P42336 whole entry E542K)": "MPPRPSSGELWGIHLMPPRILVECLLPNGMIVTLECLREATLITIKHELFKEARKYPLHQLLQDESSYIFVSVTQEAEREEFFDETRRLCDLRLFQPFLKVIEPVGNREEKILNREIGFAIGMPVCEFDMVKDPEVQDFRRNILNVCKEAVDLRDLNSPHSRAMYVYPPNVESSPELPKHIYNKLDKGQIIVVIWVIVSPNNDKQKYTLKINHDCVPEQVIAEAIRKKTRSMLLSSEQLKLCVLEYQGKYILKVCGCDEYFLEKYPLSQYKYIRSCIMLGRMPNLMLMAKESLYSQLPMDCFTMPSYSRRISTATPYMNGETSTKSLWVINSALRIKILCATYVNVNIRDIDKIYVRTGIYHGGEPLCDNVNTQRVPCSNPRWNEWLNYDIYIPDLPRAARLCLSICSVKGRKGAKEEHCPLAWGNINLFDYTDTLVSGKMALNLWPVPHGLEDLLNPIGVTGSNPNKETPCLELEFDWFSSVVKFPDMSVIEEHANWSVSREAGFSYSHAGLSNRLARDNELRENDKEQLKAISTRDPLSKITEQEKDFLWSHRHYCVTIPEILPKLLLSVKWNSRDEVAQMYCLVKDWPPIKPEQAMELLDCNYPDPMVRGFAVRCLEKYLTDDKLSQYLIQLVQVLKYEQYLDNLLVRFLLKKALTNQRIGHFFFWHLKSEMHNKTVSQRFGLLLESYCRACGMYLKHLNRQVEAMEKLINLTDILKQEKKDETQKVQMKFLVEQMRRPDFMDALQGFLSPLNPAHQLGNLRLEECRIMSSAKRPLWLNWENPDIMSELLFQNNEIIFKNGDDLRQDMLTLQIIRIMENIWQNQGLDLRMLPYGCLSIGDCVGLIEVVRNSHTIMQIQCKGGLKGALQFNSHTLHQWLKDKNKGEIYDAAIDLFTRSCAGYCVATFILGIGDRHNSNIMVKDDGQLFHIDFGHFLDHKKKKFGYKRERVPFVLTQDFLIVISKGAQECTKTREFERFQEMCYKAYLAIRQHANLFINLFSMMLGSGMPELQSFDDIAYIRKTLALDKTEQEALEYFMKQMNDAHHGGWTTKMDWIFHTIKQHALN", "T1 sequence (P27986 whole entry partner)": "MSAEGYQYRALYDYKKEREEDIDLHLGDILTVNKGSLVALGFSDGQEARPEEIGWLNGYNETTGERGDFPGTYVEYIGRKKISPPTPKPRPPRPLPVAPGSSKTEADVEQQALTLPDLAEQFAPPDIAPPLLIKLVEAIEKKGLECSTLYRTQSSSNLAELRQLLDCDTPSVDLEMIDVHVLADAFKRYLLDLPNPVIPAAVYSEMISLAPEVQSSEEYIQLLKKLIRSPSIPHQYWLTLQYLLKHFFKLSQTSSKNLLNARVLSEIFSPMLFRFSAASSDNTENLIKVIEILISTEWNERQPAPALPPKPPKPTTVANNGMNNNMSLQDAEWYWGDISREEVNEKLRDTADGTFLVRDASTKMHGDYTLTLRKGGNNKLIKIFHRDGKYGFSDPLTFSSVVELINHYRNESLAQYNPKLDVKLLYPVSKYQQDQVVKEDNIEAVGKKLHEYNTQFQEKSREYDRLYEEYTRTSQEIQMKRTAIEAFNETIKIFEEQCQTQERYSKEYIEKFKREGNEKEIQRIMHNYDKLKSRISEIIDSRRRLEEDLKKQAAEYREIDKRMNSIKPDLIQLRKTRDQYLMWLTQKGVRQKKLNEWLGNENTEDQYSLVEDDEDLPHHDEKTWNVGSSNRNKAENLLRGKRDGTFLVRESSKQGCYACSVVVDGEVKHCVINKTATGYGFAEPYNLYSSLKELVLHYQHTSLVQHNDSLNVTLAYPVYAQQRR", "assay": "HTRF kinase activity assay, E542K mutant", "format": "biochemical", "method": "Main reagents: human PI3K p110α/p85α (purchased from Promega, Cat. No. V1721), human PI3K p110α (E542K)/p85α (purchased from Millipore, Cat. No. 14-782), human PI3K p110α (E545K)/p85α (purchased from Millipore, Cat. No. 14-783) and human PI3K p110α (H1047R)/p85α (purchased from Millipore, Cat. No. 14-792)\n1) Compound was prepared. The initial concentration of compound I was 100 nM, and was serially diluted 3-fold to 10 concentrations and transferred to the test plate.\n2) Human PI3K p110α/p85α, human PI3K p110α (E542K)/p85α, human PI3K p110α (E545K)/p85α or human PI3K p110α (H1047R)/p85α and assay buffer (10 μM phosphatidylinositol 4,5-bisphosphate and Mg/ATP) were incubated. The reaction was initiated by adding ATP solution and incubated for 30 min.\n3) After incubation for 30 minutes, the reaction was terminated by adding stop solution. The stop solution contained EDTA, biotinylated phosphatidylinositol-3,4,5-trisphosphate.\n4) Detection buffer was added, europium-tagged anti-GST monoclonal antibody, GST-tagged GRP1 PH domain, and streptavidin allophycocyanin.\n5) The plate was read and the HTRF value was calculated according to the formula HTRF=10000×(Em665 nm/Em620 nm). GraphPad Prism 5.0 software was used, and a S-type dosage-survival rate curve was drawn using a nonlinear regression model and IC50 value was calculated."}, "[2]": {"system": "human breast cancer BT-474 subcutaneous xenograft tumor", "assay": "In vivo efficacy, BT-474 subcutaneous xenograft tumor model", "parameters": "species or system BALB/c nude mice", "conditions": "oral, once a day for 20 days; for Tumor volume (Day 20): Mean ± SEM; for T/C / TGI: day 20, vs Solvent 2", "method": "Experimental purpose: Study the in vivo efficacy of the test drug on human breast cancer BT-474 subcutaneous xenograft tumor BALB/c nude mouse model.\n(1) Cell culture: human breast cancer BT-474 cells were monolayer cultured in vitro. The culture conditions were that 10% fetal bovine serum, 100 U/ml penicillin (purchased from Gibco) and 100 μg/ml chain Mycin (purchased from Gibco) were added to Hybri-Care medium, and cultured at 37° C. and 5% CO2. Routine digestion and passage were performed with trypsin-EDTA (purchased from Gibco, product number: 25200-072) twice a week. When the cell saturation was 80%-90%, the cells are harvested, counted and inoculated.\n(2) Animals: BALB/c nude mice, female, 6 weeks old, weighing 16-18 grams. Provided by Shanghai Sippe-Bk Lab Animal Co., Ltd.\n(3) Control article: • Both PF05212384 and Everolimus were purchased from Shanghai TOPSCIENCE Biochemical Technology Co., Ltd.\n(4) Tumor inoculation: 0.2 ml (1×10^7) BT-474 cells (matrigel was added, volume 1:1) were subcutaneously inoculated on the right back of each mouse, and the mice were divided into groups and administered with drugs when the average tumor volume reached 122 mm^3. See Table 10 below for the experimental grouping and dosing regimen."}},
  "note": "pIC50: −log10 of the molar value.",
  "data": [
    {"smiles": "COCCOc1cnc2ccc(-c3cnc(OC)c(NS(=O)(=O)c4sc(C)nc4C)c3)cn2c1=O", "note": "[Compound I]", "values": [
      {"measurement": "pIC50", "setting": "[1]", "result": 8.52},
      {"measurement": "Tumor volume (Day 20)", "setting": "[2]; 0.05 mg/kg", "result": "194 ± 49", "unit": "mm^3"},
      {"measurement": "T/C", "setting": "[2]; 0.05 mg/kg", "result": 44, "unit": "%"},
      {"measurement": "TGI", "setting": "[2]; 0.05 mg/kg", "result": 77, "unit": "%"},
      {"measurement": "Tumor volume (Day 20)", "setting": "[2]; 0.1 mg/kg", "result": "94 ± 12", "unit": "mm^3"},
      {"measurement": "T/C", "setting": "[2]; 0.1 mg/kg", "result": 23, "unit": "%"},
      {"measurement": "TGI", "setting": "[2]; 0.1 mg/kg", "result": 109, "unit": "%"},
      {"measurement": "Tumor volume (Day 20)", "setting": "[2]; 0.3 mg/kg", "result": "68 ± 8", "unit": "mm^3"},
      {"measurement": "T/C", "setting": "[2]; 0.3 mg/kg", "result": 16, "unit": "%"},
      {"measurement": "TGI", "setting": "[2]; 0.3 mg/kg", "result": 118, "unit": "%"}
    ]}
  ]
}
